Values of other authors as cited in patent US20180250285A1 (Teva Pharmaceutical Industries Ltd., priority 2012, published 2018).

Assays:
[1] = in vivo
[2] = test system: Huntington's disease patients

oral bioavailability [1]	SMILES	tertiary endpoint UHDRS-TMS (changes in motor function) and individual items within the mMS (gait, dysarthria) ([2]; 45 mg daily or 45 mg twice daily for 6 months)	primary endpoint: effect on a specific subset of motor symptoms defined in the mMS ([2]; at 26 weeks, 45 mg daily or 45 mg twice daily)	symptomatic relief incl. improved hand movements, gait and balance (patients with HD)
high	CCN(C(=O)c1c(O)c2c(Cl)cccc2n(C)c1=O)c1ccccc1 [Laquinimod]			
	CCCN1CCC(c2cccc(S(C)(=O)=O)c2)CC1 [pridopidine, 4-[3-(methylsulfonyl)phenyl]-1-propyl-piperidine]	statistically significant effect of treatment	not met	significant symptomatic relief
